Measured values: US8969333B2, “Therapeutic compositions and methods” (The Penn State Research Foundation, priority 2010, dated 2015)

Tests used:
U2OS cells = experiment: Phase contrast microscopy of U2OS cell growth and morphology; type: cell-based, human; settings: 0-16 μM, 24 hours
Method: Cell growth and morphology changes of cells treated with compounds of the present invention are analyzed using phase contrast microscopy.
A VistaVision invert microscope (VWR Inc.) equipped with a Spot Insight digital camera (NDS, Inc.) and a 10× phase contrast lens were used to analyze cell growth and morphology in phase contrast microscopy analyses.
In this example, U2OS are treated with […] YW3-56 for 24 hours.

[1] = system: U2OS human osteosarcoma cells; experiment: MTT assay of U2OS cancer cell growth inhibition; type: cell-based
Method: MIT assays are conducted to evaluate activity to inhibit cancer cell growth. U2OS human osteosarcoma cells were treated with individual compounds at different concentrations for 72 hr in 24-well plates. MIT reagent was added to a final concentration of 0.5 mg/ml and further incubated for 4 hr. The yellow-colored MTT was reduced to insoluble purple-colored Formazan in living cells. Culture medium was removed and DMSO was added to dissolve Formazan into solution. The absorbance of the solution was then measured at 570 nm using a Thermo BioMate™ 3 spectrophotometer. Results are shown in FIG. 1 and average and standard deviations are shown (n>=3).
Cells were treated with individual compounds at different concentrations for 72 hr in 24-well plates. MTT reagent was added to a final concentration of 0.5 mg/ml and further incubated for 4 hr. The yellow-colored MTT was reduced to insoluble purple-colored Formazan in living cells. Culture medium was removed and DMSO was added to dissolve Formazan into solution. The absorbance of the solution was then measured at 570 nm using a Thermo BioMate™ 3 spectrophotometer.

U2OS p53-shRNA cells = experiment: MTT assay of U2OS cells with or without p53 depletion by shRNA; type: cell-based, human; settings: same inhibitor concentration, p<0.02
Method: MTT assays are performed in U2OS cells with or without p53 depletion to analyze the role of p53 in YW3-56 mediated cell growth inhibition and autophagy.
(§1) U2OS and S-180 cells were cultured in Dulbecco modified Eagle medium (DMEM) supplemented with 10% fetal bovine serum and 1% penicillin-streptomycin in a 5% CO2 incubator. U2OS p53-shRNA and U2OS Ctrl-shRNA cells were generated as described in Li, P. et al., Regulation of p53 target gene expression by peptidylarginine deiminase 4. Mol Cell Bial 28 (15), 4745-4758 (2008). Concentrations and duration of YW3-56 treatment were performed as specified in the figures and text. For starvation assay, U2OS cells were first cultured in serum-free DMEM for 16 hr, 10% fetal bovine serum and different concentrations of YW3-56 was then added back and cells were further incubated for 8 hr before further analyses. SESN2 siRNA (Santa Cruz) and GFP siRNA (Dharmacon Inc.) were transfected into U2OS cells using the XtremeGene siRNA transfection reagents (Roche Inc.). Cells were incubated in the presence of the siRNA for 48 hr before adding YW3-56 and further incubated for 8 hr before analyses.

p53 and its target genes = experiment: RT-qPCR and Western blot of p53 and its target genes in U2OS cells; type: cell-based, human
Method: Western blot and immunostaining was performed essentially as described in Li, P. et al., Oncogene 29 (21), 3153-3162 (2010). Antibodies used in Western blot were anti-p53 (Sigma), anti-PAD4, anti-p21 (Sigma), anti-PUMA (Calbiochem), anti-SESN2 (Abeam), anti-p70S6K (Cell Signaling), anti-p70S6K-pT389 (Cell Signaling), anti-LC3 (Cell Signaling) and anti-β-actin (Sigma) at appropriate dilutions. Anti-LC3B antibody (Cell Signaling) was used for immunostaining. DNA was stained by the DNA dye Hoechst.
RNA was extracted using RNeasy Mini Kit (Qiagen) per manufacturer's instructions. 1 μg RNA was reverse transcribed into cDNA using qScript cDNA SuperMix (Quanta Biosciences) per manufacturer's instructions. Quantitative PCR was performed using SYBR Green SuperMix (Quanta Biosciences) in StepOnePlus Real-Time PCR System (Applied Biosystems). FIG. 10 is a graph showing p53 and its target gene expression induced in S180 cells by YW3-56 in a concentration dependent manner.
as §1
The relative abundance of each gene is compared with β-actin as a reference. Increase in several p53 target genes, such as p21, GADD45, PUMA, OKL38, DRAM, and Sestrin2, is detected after YW3-88 treatment at 12 μM concentration. […] Increase in p21 and PUMA proteins is detected.

PAD4 = PAD4 (Homo sapiens (Human), UniProt Q9UM07); experiment: PAD4 enzyme activity colorimetric assay (citrullination of BAEE); type: biochemical; settings: 0.2 μg PAD4, 5 mM BAEE, 37° C.
Sequence of PAD4 (Q9UM07 whole entry, species assumed): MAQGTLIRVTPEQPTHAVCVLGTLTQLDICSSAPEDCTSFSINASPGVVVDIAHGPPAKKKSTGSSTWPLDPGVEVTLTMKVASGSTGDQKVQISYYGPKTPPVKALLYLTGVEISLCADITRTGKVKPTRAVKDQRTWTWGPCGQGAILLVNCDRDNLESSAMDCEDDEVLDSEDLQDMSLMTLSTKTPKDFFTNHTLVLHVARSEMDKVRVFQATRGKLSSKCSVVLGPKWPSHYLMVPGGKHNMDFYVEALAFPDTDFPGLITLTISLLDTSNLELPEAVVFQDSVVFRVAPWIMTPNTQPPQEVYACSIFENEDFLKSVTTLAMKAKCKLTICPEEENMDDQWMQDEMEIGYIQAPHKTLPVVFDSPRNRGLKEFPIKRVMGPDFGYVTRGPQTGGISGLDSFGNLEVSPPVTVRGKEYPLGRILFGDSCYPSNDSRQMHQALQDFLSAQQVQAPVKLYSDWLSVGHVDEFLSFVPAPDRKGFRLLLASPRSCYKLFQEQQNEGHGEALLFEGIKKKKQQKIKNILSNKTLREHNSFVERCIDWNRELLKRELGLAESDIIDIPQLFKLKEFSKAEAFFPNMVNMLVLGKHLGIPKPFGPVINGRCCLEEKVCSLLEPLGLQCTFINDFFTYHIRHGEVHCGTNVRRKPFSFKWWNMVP
Method: PAD4 enzyme activity assays are conducted to determine PAD4 inhibitory activity. PAD4 inhibition efficacy of the inhibitors is determined using a colorimetric assay for citrullination production.
The inhibition efficacy of PAD4 inhibitors were determined by colorimetric measurement of citrulline generated by PAD4 catalyzed citrullination of BAEE. 0.2 μg PAD4 was pre-incubated with inhibitors in 100 μl buffer containing 50 mM Tris-HCl pH7.6, 5 mM CaCl2, 2 mM DTT for 0.5 hr at 37° C. The reaction was started by the addition of BAEE to 5 mM and halted 1.5 hr later with the addition of 25 μl 5 M HClO4. Then the samples were briefly centrifuged at 12000 rpm for 2 min at 4° C. and the supernatant (120 μl) were assayed for citrulline by mixing with 120 μl reagent A (0.5% w/v diacetyl monoxime and 15% w/v NaCl in water) and 240 μl reagent B (1% w/v antipyrine, 0.15% w/v ferric chloride, 25% v/v H2SO4 and 25% v/v H3PO4). The mixtures were boiled for 15 min and cooled to room temperature in ice bath. The absorbance of the reagent mixtures at 464 nm was measured by Thermo BioMate™ 3 spectrophotometer. Efficacies of inhibitors are indicated as relative PAD4 citrullination activity by normalizing the PAD4 activity without inhibitor treatment to 100%.

IC50 ([1]; Homo sapiens, read-out: 50% inhibition Cell growth, U2OS cells, MTT, 72 hr): ~2500 nM
IC50 (PAD4): 1000 to 5000 nM
Compound: CN(C)c1ccc2cc(C(=O)N[C@@H](CCCNC(=N)CCl)C(=O)NCc3ccccc3)ccc2c1 [YW3-56]
U2OS cell density in culture (U2OS cells): decreases U2OS cell density
U2OS cell growth in MTT assay ([1]; 20 μM, 3 days): abolished cell growth
efficacy on cell growth inhibition after p53 depletion (U2OS p53-shRNA cells): decreased significantly
DRAM mRNA (p53 and its target genes; U2OS cells): not altered
p70S6K phosphorylation (p53 and its target genes; U2OS cells with or without p53 depletion): inhibited
sestrin1 and 2 mRNA and Sestrin2 protein levels (p53 and its target genes; U2OS cells, concentration dependent): significantly increased
